Results from patent publication US12336991B2, “Factor XIIA inhibitors” (UNIVERSITY OF LEEDS, priority 2018, dated 2025).

How the values were obtained:
Type in all cases: biochemical
[1] = biological target: T1, FXIIa (Homo sapiens, UniProt P00748); experiment: Determination of Factor XIIa inhibition, chromogenic substrate S-2302 assay; conditions: human FXIIa alpha
T1 sequence (P00748 373-615 limits assumed): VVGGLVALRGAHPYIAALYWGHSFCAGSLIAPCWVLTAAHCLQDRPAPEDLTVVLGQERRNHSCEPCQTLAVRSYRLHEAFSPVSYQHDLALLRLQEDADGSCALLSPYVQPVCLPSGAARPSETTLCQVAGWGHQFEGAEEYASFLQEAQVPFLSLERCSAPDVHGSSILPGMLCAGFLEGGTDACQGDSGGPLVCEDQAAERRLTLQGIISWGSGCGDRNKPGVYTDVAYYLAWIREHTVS
T1 sequence (P00748 20-372 partner limits assumed): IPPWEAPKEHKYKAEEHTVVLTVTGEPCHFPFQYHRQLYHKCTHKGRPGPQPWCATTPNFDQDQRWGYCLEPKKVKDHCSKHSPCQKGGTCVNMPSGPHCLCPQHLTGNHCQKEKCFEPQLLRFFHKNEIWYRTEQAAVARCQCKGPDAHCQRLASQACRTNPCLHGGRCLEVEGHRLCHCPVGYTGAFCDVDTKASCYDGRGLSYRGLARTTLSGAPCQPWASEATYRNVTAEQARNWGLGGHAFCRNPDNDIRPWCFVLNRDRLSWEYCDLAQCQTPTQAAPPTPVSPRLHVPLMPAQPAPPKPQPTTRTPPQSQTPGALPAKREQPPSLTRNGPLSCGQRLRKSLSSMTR
Procedure, shortened: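 FXIIa (10 nM) preincubated with compound 10 min at 37° C. in 50 mM Tris, 137 mM NaCl pH 7.4, 5% DMSO, top concentration 500 μM, then S-2302 added ([…]). Absorbance at 405 nm read kinetically for 3 h; IC50 from initial rates, converted to Ki by Cheng-Prusoff.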

[2] = biological target: T2, thrombin (Homo sapiens, UniProt P00734); experiment: Determination of selectivity: thrombin inhibition, chromogenic substrate GPR assay; conditions: fold selectivity for FXIIa over thrombin
T2 construct: FXa (5 nM) and thrombin (5 nM)
Procedure, shortened: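 Thrombin (5 nM) preincubated with compound 10 min at 37 °C in 50 mM Tris, 137 mM NaCl, pH 7.4, 5% DMSO, then GPR substrate ([…]) added. Absorbance at 405 nm read kinetically for 3 h; IC50 from initial rates, converted to Ki via Ki=IC50/(1+[S]/Km).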

[3] = biological target: FXa (Homo sapiens, UniProt P00742); experiment: Determination of selectivity: FXa inhibition, chromogenic substrate S2765 assay; conditions: fold selectivity for FXIIa over FXa
Procedure, shortened: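 Human FXa (5 nM) preincubated with compound (top 500 μM, 5% DMSO) 10 min at 37 °C in 50 mM Tris, 137 mM NaCl pH 7.4, then S2765 ([…]) added; A405 kinetics over 3 h at 37 °C. IC50 from initial rates, converted to Ki via Cheng-Prusoff.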

FXa, sequence (P00742 235-488 limits assumed): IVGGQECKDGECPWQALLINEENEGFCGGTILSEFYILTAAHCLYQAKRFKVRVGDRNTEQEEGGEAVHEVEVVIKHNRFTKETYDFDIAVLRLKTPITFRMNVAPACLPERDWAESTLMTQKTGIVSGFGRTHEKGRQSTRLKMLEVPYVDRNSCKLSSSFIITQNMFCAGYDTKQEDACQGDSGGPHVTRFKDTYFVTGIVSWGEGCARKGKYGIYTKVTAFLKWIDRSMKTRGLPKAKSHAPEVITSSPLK
FXa, sequence (P00742 41-179 partner limits assumed): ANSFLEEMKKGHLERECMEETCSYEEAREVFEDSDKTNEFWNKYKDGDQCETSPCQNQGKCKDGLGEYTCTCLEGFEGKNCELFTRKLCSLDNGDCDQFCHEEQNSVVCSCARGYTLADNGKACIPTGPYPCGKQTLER

SMILES	Ki [1] [nM]	Thrombin (human)/FXIIa alpha (human) [2]	FXa (human)/FXIIa alpha (human) [3]
COc1ccc(C[C@@H]2C[C@@H](C(=O)NCc3ccc4c(c3)nnn4C)N(C(=O)[C@H]3CC(c4cccnc4C)CN3)C2)cc1 (stereo partly drawn) [Example M05406]	200 to 2000	+++ (fold selectivity values greater than 100)	∘∘∘
Cn1nnc2cc(CNC(=O)[C@@H]3C[C@@H](Cc4cccc(C(F)(F)F)c4)CN3C(=O)[C@H]3C[C@@H](c4ccccc4)CN3)ccc21 [Example M05356]	> 2000	++ (fold selectivity value of 10 to 100)	∘∘
Cn1nnc2cc(CNC(=O)[C@@H]3C[C@@H](Cc4ccncc4)CN3C(=O)[C@@H](CCC(=O)N3CCCC3)NC(=O)Cc3ccccc3)ccc21 [Example M05267, (2S,4R)-1-((R)-5-Oxo-2-phenylacetylamino-5-pyrrolidin-1-yl-pentanoyl)-4-pyridin-4-ylmethyl-pyrrolidine-2-carboxylic acid (1-methyl-1H-benzotriazol-5-ylmethyl)-amide]	> 2000	++ (fold selectivity value of 10 to 100)	∘∘
NCc1ccc(CNC(=O)[C@@H]2C[C@H](O)CN2C(=O)[C@H](N)CCc2ccccc2)cn1 [Example M05054]	> 2000	++ (fold selectivity value of 10 to 100)	∘∘
CC(=O)N(Cc1cccnc1)[C@H]1C[C@@H](C(=O)NCc2ccc3c(c2)nnn3C)N(C(=O)[C@H](N)CCc2ccccc2)C1 [Example M05162]	> 2000	++ (fold selectivity value of 10 to 100)	∘∘
COc1ccc(C[C@@H]2C[C@@H](C(=O)NCc3ccc4c(C)nn(C)c4c3)N(C(=O)[C@H](N)CCC(=O)N3CCCC3)C2)cc1 [Example M05448]	200 to 2000	+++ (fold selectivity values greater than 100)	∘∘∘
Cn1nnc2cc(CNC(=O)[C@@H]3C[C@@H](Cc4cccnc4)CN3C(=O)[C@H](N)CCC(=O)N3CCCC3)ccc21 [Example M05218]	200 to 2000	+++ (fold selectivity values greater than 100)	∘∘∘
COc1ccc(C[C@@H]2C[C@@H](C(=O)NCc3ccc4c(c3)nnn4C)N(C(=O)[C@H](N)CCC(=O)N3CCC[C@H]3C#N)C2)cc1 [Example M05402]	< 200	+++ (fold selectivity values greater than 100)	∘∘∘
Cn1nnc2cc(CNC(=O)[C@@H]3C[C@@H](c4ccccc4)CN3C(=O)[C@H](N)CCC(=O)N3CCCC3)ccc21 [Example M05155]	200 to 2000	+++ (fold selectivity values greater than 100)	∘∘∘
CN(C)[C@H](CCC(=O)N1CCCC1)C(=O)N1C[C@H](Cc2cccnc2)C[C@H]1C(=O)NCc1ccc2c(c1)nnn2C [Example M05222]	200 to 2000	+++ (fold selectivity values greater than 100)	∘∘∘
COc1ccc(C[C@@H]2C[C@@H](C(=O)NCc3cccs3)N(C(=O)[C@H](N)CCC(=O)N3CCCC3)C2)cc1 [Example M00972]	200 to 2000	++ (fold selectivity value of 10 to 100)	∘∘
Cn1nnc2cc(CNC(=O)[C@@H]3C[C@H](NCCCc4ccccc4)CN3C(=O)[C@H](N)CCc3ccccc3)ccc21 [Example M05206]	> 2000	++ (fold selectivity value of 10 to 100)	∘∘
COc1ccc(C[C@@H]2C[C@@H](C(=O)NCc3cc4cnccc4[nH]3)N(C(=O)C3NCCc4cc(OC)ccc43)C2)cc1 (single isomer, unassigned) [Example M00963]	< 200	+++ (fold selectivity values greater than 100)	∘∘∘
NCc1ccc(CNC(=O)C2CCCN2C(=O)[C@H](N)CCc2cccc(CO)c2)cc1 (stereo partly drawn) [Example M00805]	> 2000	+ (fold selectivity values less than 10)	∘∘
Cn1nnc2cc(CNC(=O)[C@@H]3C[C@@H](Cc4ccncc4)CN3C(=O)[C@@H](CCC(=O)N3CCCC3)NCCC(F)(F)F)ccc21 [Example M05262]	> 2000	++ (fold selectivity value of 10 to 100)	∘∘
CNC(=O)N[C@H]1C[C@@H](C(=O)NCc2ccc3c(c2)nnn3C)N(C(=O)[C@H](N)CCc2ccccc2)C1 [Example M05208]	> 2000	++ (fold selectivity value of 10 to 100)	∘∘
COc1ccc(C[C@@H]2C[C@@H](C(=O)NCc3ccc4c(c3)nnn4C)N(C(=O)[C@H]3CC(c4c[nH]cn4)CN3)C2)cc1 (stereo partly drawn) [Example M05464]	> 2000	++ (fold selectivity value of 10 to 100)	∘∘
Cn1nnc2cc(CNC(=O)[C@@H]3C[C@@H](Cc4ccc(S(C)(=O)=O)cc4)CN3C(=O)[C@H]3C[C@@H](c4ccccc4)CN3)ccc21 [Example M05372]	200 to 2000	++ (fold selectivity value of 10 to 100)	∘∘∘
Cn1nnc2cc(CNC(=O)[C@@H]3C[C@@H](Cc4ccc(C(F)(F)F)cc4)CN3C(=O)[C@H]3C[C@@H](c4ccccc4)CN3)ccc21 [Example M05334]	200 to 2000	++ (fold selectivity value of 10 to 100)	∘∘
COc1ccc(C[C@@H]2C[C@@H](C(=O)NCc3ccc4c(c3)nnn4C)N(C(=O)[C@H]3C[C@@H](c4ccccc4)CN3C)C2)cc1 [Example M05389, (2S,4R)-4-(4-Methoxy-benzyl)-1-((2R,4S)-1-methyl-4-phenyl-pyrrolidine-2-carbonyl)-pyrrolidine-2-carboxylic acid (1-methyl-1H-benzotriazol-5-ylmethyl)-amide]	200 to 2000	+++ (fold selectivity values greater than 100)	∘∘∘
Cc1cccc(CC[C@@H](N)C(=O)N2CCC[C@H]2C(=O)NCc2ccc(CN)cc2)c1 [Example M00762]	> 2000	+ (fold selectivity values less than 10)	∘∘
COc1cncc(CC2C[C@@H](C(=O)NCc3ccc4c(c3)nnn4C)N(C(=O)[C@H](N)CCC(=O)N3CCCC3)C2)c1 (stereo partly drawn) [Example M05304]	200 to 2000	+++ (fold selectivity values greater than 100)	∘∘∘
Cn1nnc2cc(CNC(=O)[C@@H]3C[C@H](Cc4ccccc4)CN3C(=O)[C@H](N)CCC(=O)N3CCCC3)ccc21 [Example M05211, (2S,4S)-1-((R)-2-Amino-5-oxo-5-pyrrolidin-1-yl-pentanoyl)-4-benzyl-pyrrolidine-2-carboxylic acid (1-methyl-1H-benzotriazol-5-ylmethyl)-amide]	200 to 2000	+++ (fold selectivity values greater than 100)	∘∘∘
